# Measured values as given in paper PMC11267547, “Advancing drug discovery through assay development: a survey of tool compounds within the human solute carrier superfamily” (Frontiers in Pharmacology, 2024).
# Like-named read-outs stand apart in the source and are kept apart here.
# Legend:
# SLC6A8 = target: T1, SLC6A8 (Homo sapiens, UniProt P48029); assay: RESOLUTE assay on SLC6A8; type: cell-based
# T1 construct: expressed in transfected cells; host or cells: Jump In T-REx HEK293 (general cell-line paragraph)
# T1 sequence (P48029 1-635): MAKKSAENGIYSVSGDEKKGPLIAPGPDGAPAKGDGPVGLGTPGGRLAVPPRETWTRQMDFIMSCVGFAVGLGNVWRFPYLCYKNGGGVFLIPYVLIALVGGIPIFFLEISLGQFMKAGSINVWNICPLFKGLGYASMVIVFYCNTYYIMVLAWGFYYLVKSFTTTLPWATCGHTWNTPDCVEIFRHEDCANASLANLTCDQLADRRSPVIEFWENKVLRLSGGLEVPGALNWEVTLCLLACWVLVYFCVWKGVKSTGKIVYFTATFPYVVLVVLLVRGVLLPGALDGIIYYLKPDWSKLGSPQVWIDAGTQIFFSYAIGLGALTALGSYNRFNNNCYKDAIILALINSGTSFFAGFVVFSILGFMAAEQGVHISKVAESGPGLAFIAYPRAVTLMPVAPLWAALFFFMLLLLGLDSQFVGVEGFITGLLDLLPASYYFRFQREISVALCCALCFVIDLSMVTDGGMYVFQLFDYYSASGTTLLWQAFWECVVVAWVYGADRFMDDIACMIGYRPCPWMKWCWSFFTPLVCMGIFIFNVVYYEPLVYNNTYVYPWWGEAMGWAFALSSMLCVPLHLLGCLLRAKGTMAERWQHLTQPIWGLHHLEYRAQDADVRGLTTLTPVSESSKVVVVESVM
# Experimental: (§1) FLIPR Membrane Potential Blue Dye was used to detect the compound activities for those membrane transporters that are electrogenic or whose activity is associated with changes in membrane potential, as previously described ([Jensen and BräunerOsborne, 2004]). In brief, cells are seeded at cell line-specific density in black clear-bottom poly-D-Lysine-coated 384-well plates (Greiner Bio-One) in DMEM high-glucose medium with 10% FBS, 1% P/S, and 2 mM UltraGlutamine I (25 µL/well). Furthermore, 24 h after seeding, the culture medium is removed, and the cells are loaded with 20 µL/well of 0.5 X FMP Blue Dye in assay buffer (modified Tyrode’s buffer, 130 mM NaCl, 5 mM KCl, 1 mM MgCl2, 2 mM CaCl2, 5 mM NaHCO3, and 20 mM HEPES pH 7.4). The plates are subsequently incubated for at least 30 min at room temperature in the dark. Then, 10 µL/well of test compounds and controls is added at defined concentrations (0.5% DMSO final conc.) in the FLIPR TETRA instrument (Molecular Devices), and emitted fluorescence is recorded using a λexc 510–545-nm/λem 565–625-nm filter. The dose–response curves for the 19 compounds were prepared starting from 3 µM (final top concentration), the half-log serial dilution factor. For data analysis, Genedata Screener 19.0 software was used.
# (§2) The robust Z prime factor (RZ’ factor) was calculated with the following formula: RZ^′=1−3∗RSDMAX+RSDMIN/AbsMAX − MIN, where the RZ’ factor is based on the same formula as the Z′ factor ([Zhang et al., 1999]) but standard deviations and means are replaced by the robust standard deviations and medians, respectively. Curve fitting profiles were performed on each dose–response curve with the analyzer module of Genedata Screener 19.0 on % activity.
# SLC7A3 = target: T2, SLC7A3 (Homo sapiens, UniProt Q8WY07); assay: RESOLUTE assay on SLC7A3; type: cell-based
# T2 construct: expressed in transfected cells; host or cells: Jump In T-REx HEK293 (general cell-line paragraph)
# T2 sequence (Q8WY07 whole entry): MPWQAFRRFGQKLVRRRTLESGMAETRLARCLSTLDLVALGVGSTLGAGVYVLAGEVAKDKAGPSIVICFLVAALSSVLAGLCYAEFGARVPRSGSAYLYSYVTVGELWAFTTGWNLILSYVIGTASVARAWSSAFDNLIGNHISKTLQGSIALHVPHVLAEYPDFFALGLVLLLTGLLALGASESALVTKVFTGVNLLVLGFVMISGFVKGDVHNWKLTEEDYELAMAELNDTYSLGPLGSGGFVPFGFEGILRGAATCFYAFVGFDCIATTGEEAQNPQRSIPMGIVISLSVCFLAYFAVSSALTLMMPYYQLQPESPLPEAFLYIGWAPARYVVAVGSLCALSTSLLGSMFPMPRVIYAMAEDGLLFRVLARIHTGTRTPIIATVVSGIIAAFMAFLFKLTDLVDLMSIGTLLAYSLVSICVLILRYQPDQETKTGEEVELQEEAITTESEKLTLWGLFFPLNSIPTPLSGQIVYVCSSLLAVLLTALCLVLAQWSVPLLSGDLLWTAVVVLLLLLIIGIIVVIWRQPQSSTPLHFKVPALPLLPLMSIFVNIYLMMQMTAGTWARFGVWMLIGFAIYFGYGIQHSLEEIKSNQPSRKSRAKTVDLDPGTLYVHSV
# Experimental: as §1, §2
# SLC23A1 = target: T3, SLC23A1 (Homo sapiens, UniProt Q9UHI7); assay: RESOLUTE assay on SLC23A1; type: cell-based
# T3 construct: expressed in transfected cells; host or cells: Jump In T-REx HEK293 (general cell-line paragraph)
# T3 sequence (Q9UHI7 whole entry): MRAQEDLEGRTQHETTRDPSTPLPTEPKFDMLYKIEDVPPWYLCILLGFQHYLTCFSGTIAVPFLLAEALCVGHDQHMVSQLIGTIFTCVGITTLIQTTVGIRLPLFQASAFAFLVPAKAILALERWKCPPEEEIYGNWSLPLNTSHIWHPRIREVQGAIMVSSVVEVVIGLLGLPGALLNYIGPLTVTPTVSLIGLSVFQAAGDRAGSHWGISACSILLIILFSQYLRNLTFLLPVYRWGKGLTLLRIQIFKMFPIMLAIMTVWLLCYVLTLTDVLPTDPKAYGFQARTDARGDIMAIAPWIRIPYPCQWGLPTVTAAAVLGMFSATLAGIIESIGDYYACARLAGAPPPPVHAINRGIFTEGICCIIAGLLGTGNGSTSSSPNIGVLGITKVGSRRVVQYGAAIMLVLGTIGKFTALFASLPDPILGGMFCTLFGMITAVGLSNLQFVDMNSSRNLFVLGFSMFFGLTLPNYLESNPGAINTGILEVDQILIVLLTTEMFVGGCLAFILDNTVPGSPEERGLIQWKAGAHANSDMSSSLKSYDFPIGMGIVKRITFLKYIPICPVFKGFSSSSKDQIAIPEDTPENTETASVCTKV
# Experimental: as §1, §2
# SLC6A4 = SLC6A4 (Homo sapiens, UniProt P31645); assay: cell-based
# SLC6A4, sequence (P31645 whole entry): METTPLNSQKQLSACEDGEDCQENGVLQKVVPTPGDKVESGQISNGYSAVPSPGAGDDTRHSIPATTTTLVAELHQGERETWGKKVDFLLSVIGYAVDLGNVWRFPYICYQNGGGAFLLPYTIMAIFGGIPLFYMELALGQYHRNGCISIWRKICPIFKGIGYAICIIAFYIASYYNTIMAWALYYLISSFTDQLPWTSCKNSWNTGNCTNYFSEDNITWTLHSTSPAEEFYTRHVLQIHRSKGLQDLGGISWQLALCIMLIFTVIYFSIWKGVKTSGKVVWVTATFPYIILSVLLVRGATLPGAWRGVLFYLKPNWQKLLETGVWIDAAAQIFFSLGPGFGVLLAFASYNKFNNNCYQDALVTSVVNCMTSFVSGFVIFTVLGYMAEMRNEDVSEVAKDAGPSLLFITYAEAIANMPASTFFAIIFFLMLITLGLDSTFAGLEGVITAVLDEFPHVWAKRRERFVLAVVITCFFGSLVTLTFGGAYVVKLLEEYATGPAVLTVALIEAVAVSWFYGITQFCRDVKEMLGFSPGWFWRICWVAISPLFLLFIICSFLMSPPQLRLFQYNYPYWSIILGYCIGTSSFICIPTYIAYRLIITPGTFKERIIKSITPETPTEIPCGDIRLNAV
# SLC1A1 [1] = target: T4, SLC1A1 (Homo sapiens, UniProt P43005); assay: Echo-MS assay, uptake of labeled glutamic acid in dox-induced HEK293–JumpIn–SLC1A1 (EAAT3) cells; type: cell-based; set-up: expressed in transfected cells; host or cells: Jump In T-REx HEK293
# T4 sequence (P43005 1-524): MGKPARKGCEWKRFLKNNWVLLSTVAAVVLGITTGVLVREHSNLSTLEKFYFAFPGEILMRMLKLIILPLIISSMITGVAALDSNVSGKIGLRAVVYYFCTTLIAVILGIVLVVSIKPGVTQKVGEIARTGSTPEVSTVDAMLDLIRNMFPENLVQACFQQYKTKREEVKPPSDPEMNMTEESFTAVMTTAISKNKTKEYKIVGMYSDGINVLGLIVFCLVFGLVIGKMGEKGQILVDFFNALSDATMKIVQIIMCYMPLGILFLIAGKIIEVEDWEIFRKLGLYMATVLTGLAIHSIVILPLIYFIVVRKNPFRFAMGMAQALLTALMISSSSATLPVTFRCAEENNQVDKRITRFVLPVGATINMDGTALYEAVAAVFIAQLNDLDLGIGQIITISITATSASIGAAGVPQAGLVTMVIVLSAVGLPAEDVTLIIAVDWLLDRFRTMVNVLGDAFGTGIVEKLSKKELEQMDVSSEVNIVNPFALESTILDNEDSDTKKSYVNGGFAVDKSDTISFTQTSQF
# Experimental: Before the Echo-MS experiment, 15,000 cells per well were seeded into the wells of a 384-well plate (Beckman Coulter) and induced with 1 μg/μL doxycycline. […] The next day, compounds with stock solutions of 10 mM were first diluted to a final concentration of 90 µM before starting a 10-stage dilution series with a dilution factor of 1:3 with the CyBio FeliX pipetting robot. After the supernatant in the plate of the cell plate assay was discarded (BlueWasher, BlueCatBio), 10 µL of potassium/wash buffer including the compound dilution series was transferred by the pipetting robot (FeliX, CyBio), yielding a highest final concentration of 30 µM compound per well. […] After 30 min on the shaker at 500 rpm, the plates were centrifuged for 20 min at 2,000 rpm. Finally, 40 µL/well was transferred on qualified 384-well plates and then measured with Echo-MS/ADE-MS (Sciex). ADE-MS measurements were performed on an ADE-MS device (Sciex) operated with Sciex OS software (version 2.1.6.59781). […] For all samples, an ejection volume of 5 nL (2 droplets) and a repetition rate of 2.5 s/well were used. Triple Quad 6500+ was operated in a positive mode using the following settings: vaporizer temperature 450°C, spray voltage 5500 V, ion source gas 1: 90 psi, ion source gas 2: 70 psi, curtain gas 20 psi, CAD gas 9 psi, dwell time 95 m, DP 35 V, EP 10 V, CE 14 V, and CXP 18 V. Data were processed with Sciex OS and further processed with Genedata Screener (version 19.0.9-Standard). Transporter inhibition by the compounds was tracked by analyzing the MS signal area values of uptaken labeled glutamic acid into the cell. The signal ratio of the reaction product to the respective standard was calculated to diminish variations ascribed to the sample preparation procedure or the MS readout. Average control values were calculated and set to 100% activity (high controls) and 0% activity (low controls), while the response values of compound-containing wells were normalized against the controls and expressed as the percentage of control (PoC).
# SLC22A3 (OCT3) = target: T5, SLC22A3 (OCT3) (Homo sapiens, UniProt O75751); assay: Impedance-based MPP+ transport assay, HEK293–JumpIn–OCT3 cells; type: cell-based
# T5 construct: expressed in transfected cells; host or cells: Jump In T-REx HEK293
# T5 sequence (O75751 1-556): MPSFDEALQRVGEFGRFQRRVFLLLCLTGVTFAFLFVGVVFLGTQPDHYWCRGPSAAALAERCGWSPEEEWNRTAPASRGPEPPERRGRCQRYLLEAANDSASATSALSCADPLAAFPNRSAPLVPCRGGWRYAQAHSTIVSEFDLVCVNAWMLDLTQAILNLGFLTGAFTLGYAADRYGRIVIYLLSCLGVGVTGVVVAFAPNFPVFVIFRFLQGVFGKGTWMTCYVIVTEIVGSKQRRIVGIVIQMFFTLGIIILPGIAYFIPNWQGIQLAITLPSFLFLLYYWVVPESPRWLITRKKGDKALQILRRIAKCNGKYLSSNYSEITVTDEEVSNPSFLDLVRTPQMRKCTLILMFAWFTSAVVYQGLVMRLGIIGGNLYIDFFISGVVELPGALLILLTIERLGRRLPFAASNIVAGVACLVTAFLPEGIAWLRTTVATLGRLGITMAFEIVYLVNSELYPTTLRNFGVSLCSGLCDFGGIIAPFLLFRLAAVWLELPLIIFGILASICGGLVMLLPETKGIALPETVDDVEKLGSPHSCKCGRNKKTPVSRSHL
# Experimental: In short, HEK293–JumpIn–OCT3 (SL22A3) cells were seeded (60.000 cells/well) on an E-plate with 1 μg/mL doxycycline and grown for 22 h using the xCELLigence real-time cell analyzer (RTCA) SP or MP system. […] Changes in cellular morphology were monitored for a total of 2 h.
# SLC1A1 [2] = target: T4, SLC1A1; settings: cited from earlier work
# [3] = target SLC6A8, Flipr Membrane Potential-Blue-Dye, read-out: pIC50 (act) (converted)
# [4] = target SLC7A3, Flipr Membrane Potential-Blue-Dye, read-out: pIC50 (act) (converted)
# [5] = Flipr Membrane Potential-Blue-Dye, read-out: pIC50 (act), SLC23A1 (converted)
# [6] = target SLC1A1, assay EchoMS, read-out: pIC50 (act) (converted)
# [7] = phenotypic, read-out: pIC50 (act), SLC22A3 (converted)
# [8] = dox-induced HEK293–JumpIn–SLC1A1 cells, top conc. 30 µM, read-out: pIC50, SLC1A1, EchoMS (converted)
# [9] = Flipr Membrane Potential-Blue-Dye, read-out: pIC50 (act), SLC7A3 (converted)
Compound,IC50 (SLC6A8; [3]) [µM],IC50 (SLC7A3; [4]) [µM],IC50 (SLC23A1; [5]) [µM],EC50 (SLC6A4) [µM],IC50 (SLC1A1 [1]; [6]) [µM],IC50 (SLC22A3 (OCT3); [7]) [µM],IC50 (SLC6A4) [µM],IC50 (SLC1A1 [1]; [8]) [µM],IC50 (SLC6A8) [µM],IC50 (SLC7A3) [µM],IC50 (SLC23A1) [µM],IC50 (SLC22A3 (OCT3)) [µM],IC50 (SLC1A1 [1]) [µM],IC50 (SLC7A3; [9]) [µM],"primary_SLC_act / SLCs_act (SLC1A1 [2]; SLC1A1, known data from the KNIME workflow, ref ChEMBL)","Literature median activity, SLC1A1 (SLC1A1 [2]; median of reported IC50, Ki, EC50, Kd values (negative log molar), ref Supplementary Table S2)"
Cc1c(NC(=O)c2cc(C(N)=O)nc3cc(F)ccc23)c(C(F)(F)F)nn1Cc1ccc(C#N)cc1 [BAY-876],> 3.16,> 3.16,> 3.16,0.00794,> 30,,,,,,,,,,,
CN1C2CCC1CC(OC(c1ccccc1)c1ccccc1)C2 (stereo not shown) [Benzotropine],> 3.16,> 3.16,> 3.16,,> 30,> 10,,,,,,,,,,
CCNC(=O)/C=C/c1cccc(Br)c1 [Cinromide],> 3.16,> 3.16,> 3.16,,> 30,> 10,> 10,,,,,,,,,
O=S(=O)(O)c1cc(N=C=S)ccc1/C=C/c1ccc(N=C=S)cc1S(=O)(=O)O [DIDS],> 3.16,> 3.16,> 3.16,,5.72,> 10,> 10,6.31,,,,,,,,
COCCOc1cc(CC2CCN(CCc3ccc4c(c3)C(=O)CCO4)CC2)ccc1Br [DSP-1053],> 3.16,> 3.16,> 3.16,,> 30,> 10,,,,,,,,,,
CNCCCN1c2ccccc2CCc2ccccc21 [Desipramine],> 3.16,> 3.16,> 3.16,,> 30,> 10,,,,,,,,,,
CC(C)[C@H]1CN[C@H](C(=O)O)[C@H]1CC(=O)O [Dihydrokainate],> 3.16,> 3.16,> 3.16,,> 10,> 10,> 10,,,,,,,,,
N#Cc1ccc(Nc2cnccc2SCc2ccccc2C(=O)O)c2ccccc12 [KPH2f],> 3.16,> 3.16,> 3.16,,0.894,> 10,~1,1,,,,,,,,
C=C(C)[C@H]1CN[C@H](C(=O)O)[C@H]1CC(=O)O [Kainic acid],,,,,,,,,> 3.16,> 3.16,> 3.16,> 10,> 10,,,
CCOC(=O)N1CCC(=C2c3ccc(Cl)cc3CCc3cccnc32)CC1 [Loratadine],> 3.16,> 3.16,> 3.16,,,> 10,,,,,,,,,,
Nc1nc2ccc(OC(F)(F)F)cc2s1 [Riluzole],> 3.16,,> 3.16,,7.25,,,7.94,,,,,,> 3.16,,
N[C@H](C(=O)O)[C@H](OCc1cccc(NC(=O)c2ccc(C(F)(F)F)cc2)c1)C(=O)O [TFB-TBOA],> 3.16,,> 3.16,,0.436,> 10,> 10,0.398,,,,,,> 3.16,6.92,6.9
Cc1ccsc1C(=CCCN1CCC[C@@H](C(=O)O)C1)c1sccc1C [Tiagabine],> 3.16,,> 3.16,,> 30,> 10,> 10,,,,,,,> 3.16,,
COc1ccc(C2C(C#N)=C(N)OC3=C2C(=O)CC(c2cccc4ccccc24)C3)cc1 (stereo not shown) [UCPH-101],> 3.16,,> 3.16,,> 10,> 10,> 10,,,,,,,> 3.16,,
CC1C(C#N)=C(N)OC2=C1C(=O)CC(c1cccc3ccccc13)C2 (stereo not shown) [UCPH-102],> 3.16,,> 3.16,,> 10,> 10,> 10,,,,,,,> 3.16,,
"Fc1ccc(C(OCCN2CCN(CCCc3ccccc3)CC2)c2ccc(F)cc2)cc1 [Vanoxerine (GBR12909), Vanoxerine]",> 3.16,,> 3.16,,,> 10,,,,,,,,> 3.16,,
